Like-named read-outs stand apart in the source and are kept apart here.
Columns and labels:
[1] = test system: human breast cancer cells (ATCC HTB123); assay: Cytotoxicity assay (MTS/PMS), growth inhibition of human breast cancer cells; format: cell-based; set-up: concentration or dose not given beside the values; conditions: approximately 48 hours growth with test compound
Experimental: The activity in human breast cancer of the novel compounds (as earlier reported) was realized by the following procedure which determines the inhibitory effect of test samples on the growth of human breast cancer cells.
(ATCC HTB123) The HTB123 cells are grown in RPMI 1640 media+10% Fetal bovine serum+4.5 g/L glucose+10 mM HEPES+1.0 mM sodium pyruvate+1% Antibiotic/Antimycotic for approximately 48 hours at 37° C./5% CO2 in the presence of the test compound.
Growth/Non-Growth of the cells (e.g., cell density) is determined using Promega's MTS/PMS assay system. MTS (3-(4,5-dimethylthiazol-2-yl)-5-(3-carboxymethoxyphenyl)-2-(4-sulfophenyl)-2H-tetrazolium, inner salt) is an aqueous compound that is reduced to soluble formazan by the presence of NADH formed by dehydrogenases present within the HTB123 cells. The absorbance of the formazan can be measured at 490 nm and is directly proportional to the number of living cells present in the culture. PMS (Phenazine Methosulfate) is added an electron coupling reagent and greatly increases the rate of reduction.
To facilitate a full understanding of the procedure the following definitions are offered:
Test wells—wells containing test sample and Diluted HTB 123 cells
Test values—absorbance of test wells
Blank wells—wells containing test sample and HTB 123 media (HHTB2-01S); used to obtain background absorbance due to test sample
Blank values—absorbance of blank wells.
Negative Control—maximal cell growth; results of test samples will be expressed as a percent of the Negative Control
Positive Control—known inhibitor of HTB123 cells; used to validate assay system
Matrix—solvent that the samples are prepared/diluted in
Assay samples of similar origin and matrix (e.g., methanol extraction, methylene chloride extraction, water soluble samples, etc.) together on the same plate in order to reduce the number of steps performed per plate.
Blank values will be determined for each sample to account for any color contribution due to the sample itself. These blank wells must contain the same amount of sample plus HTB123 media (no cells). After completion of MTS/PMS reaction blank values will be subtracted from the test value to obtain a net absorbance that will be used to calculate cell density.
All results are based upon a comparison to the Negative Control value of the plate. The Negative Control must contain the same amount of matrix (e.g., solvent) to offset any destructive effect the matrix may have on the growth of the HTB123 cells (allows for baseline values to be set).
For most samples, a HTB123 cell growth (diluted two to four-fold, depending upon the appearance of the inoculum*) of approximately 48 hours followed by and incubation of 3 hours with the MTS/PMS Reagent is optimal.
*Due to the nature of the HTB123 cells it is very difficult to obtain accurate cell densities. Continuation of the HTB123 cell line typically consists of the dilution of mature cells at two or three-fold into fresh media and growth at 37° C./5% CO2 for two to three days.
In order to establish the accuracy of this assay a Positive Control consisting of 50 μM Methotrexate should […] 90% of the Negative Control (HTB123 cells are somewhat resistant to methotrexate) is utilized.

[2] = test system: white mice; assay: Animal toxicity bioassay (acute toxicity, LD50); format: in vivo; conditions: intraperitoneal injection, observed 14 days
[3] = Solubility in solvents and water; format: physicochemical; conditions: for Solubility in organic solvents: organic solvents as listed
[4] = Animal toxicity bioassay (acute toxicity, LD50); format: in vivo; conditions: both sexes, mouse, in vivo, ip, white mice, intraperitoneal injection, observed 14 days
[5] = Stability in solution; format: physicochemical; conditions: solution heated or stored for a long time; decomposes with formation of OF-12
[6] = background statement; cited from earlier work
[7] = test system: white mice; conditions: same bioassay system (JZKEDZ 6,1,1980); cited from earlier work
[8] = read-out: LD50 (animal toxicity)

SMILES	Activity (ATCC HTB123) [1] [%]	percent activity against human breast carcinoma [1] [%]	Solubility in organic solvents [3]	LD50 at 14 days [4, 8] [mg/kg]	other results
COC(=O)/C(=C/C(=O)c1ccccc1)NN=C1c2ccccc2-c2ccccc21 [1F-04, 2-(N′-Fluoren-9-ylidene-hydrazino)-4-oxo-4-phenyl-but-2-enoic acid methyl ester]	93	–	–	–	LD50 [2]: >1000 mg/kg
COC(=O)C1(O)C(C(=O)c2ccc(C)cc2)=C(O)C(=O)N1c1ccc(C)cc1C (centres unmarked) [1F-07, 1-(2,4-Dimethyl-phenyl)-2,4-dihydroxy-3-(4-methyl-benzoyl)-5-oxo-2,5-dihydro-1H-pyrrole-2-carboxylic acid methyl ester]	–	100	highly soluble in DMSO, acetonitrile, slightly soluble in dichloroethane, benzene, insoluble in hexane tetrachloromethane	> 500	Solubility in water [3]: insoluble
COc1ccc(C(=O)C(=NNc2ccccc2)C(=O)C(=O)O)cc1 [3F-10, 4-(4-Methoxy-phenyl)-2,4-dioxo-3-(phenyl-hydrazono)-butyric acid]	–	100	highly soluble in DMSO, DMFA, slightly soluble in chloroform, dichloroethane; insoluble in hexanes	< 750	–
CCOC(=O)C(=O)C(=NNc1ccccc1)C(=O)c1ccc(Cl)cc1 [3F-11, 4-(4-Chloro-phenyl)-2,4-dioxo-3-(phenyl-hydrazono)-butyric acid ethyl ester]	–	100	–	> 2000	–
COc1c(F)c(F)c(C(=O)C=C(O)C(=O)O)c(F)c1F [3F-15, 2-Hydroxy-4-oxo-4-(2,3,5,6-tetrafluoro-4-methoxy-phenyl)-but-2-enoic acid]	–	100	–	> 200	–
Cc1ccc(C(=O)C2=NN(c3ccccc3)C(=O)C2(O)O)cc1 [3F-16, 4,4-Dihydroxy-5-(4-methyl-benzoyl)-2-phenyl-2,4-dihydro-pyrazol-3-one]	–	100	highly soluble in DMSO, dioxane	> 500	Solubility in water [3]: insoluble
CCOc1ccc(C(Cl)=CC(=NN=C2c3ccccc3-c3ccccc32)C(=O)OC)cc1 [3F-19, 4-Chloro-4-(4-ethoxy-phenyl)-2-(fluoren-9-ylidene-hydrazono)-but-3-enoic acid methyl ester]	100	–	–	–	LD50 at 14 days ([4]; read-out: LD50): > 200 mg/kg
COC(=O)C(=CC(=O)C(C)(C)C)NN=C1c2ccccc2-c2ccccc21 [OF-06, 2-(N′-Fluoren-9-ylidene-hydrazino)-5,5-dimethyl-4-oxo-hex-2-enoic acid methyl ester]	–	100	highly soluble in DMSO, DMFA, dichloroethane, acetonitrile, slightly soluble in ethanol, tetrachloromethane, insoluble in hexane	–	Solubility in water [3]: insoluble
CCOc1ccc(C(=O)CC(O)(NN=C2c3ccccc3-c3ccccc32)C(=O)OC)cc1 (centres unmarked) [OF-13, 4-(4-Ethoxy-phenyl)-2-(N′-fluoren-9-ylidene-hydrazino)-2-hydroxy-4-oxo-butyric acid methyl ester]	100	–	highly soluble in DMSO, DMFA, dichloroethane, acetonitrile, insoluble in hexane	–	Stability in solutions [5]: not stable in solutions; LD50 [2]: >1500 mg/kg
COC(=O)/C(=C/C(=O)c1ccccc1)N/N=C(\C)c1ccc(Cl)cc1 [OF-20, 2-{N′-[1-(4-Chloro-phenyl)-ethylidene]-hydrazino}-4-oxo-4-phenyl-but-2-enoic acid methyl ester]	83	–	–	–	–
CC(=O)O[C@H]1C(=O)[C@@]2(C)[C@H]([C@H](OC(=O)c3ccccc3)[C@]3(O)C[C@H](OC(=O)[C@H](O)[C@@H](NC(=O)c4ccccc4)c4ccccc4)C(C)=C1C3(C)C)[C@]1(OC(C)=O)CO[C@@H]1C[C@@H]2O [Taxol]	–	–	–	–	Solubility in water [6]: insoluble in water; intraperitoneal LD50 dose in mice [7]: 218 mg/kg

From patent US6703426B1, “Treatment of breast cancer” (University of Central Florida, priority 2001, dated 2004)
